In patent US8022099B2, “N-benzyl pyrrolidine derivatives” (Hoffmann-La Roche Inc., priority 2008, dated 2011):

Legend:
[1] = phase II trial, cited from earlier work
human NK3 receptor = target: T1, human NK3 receptor (Homo sapiens, UniProt P29371); test: [3H]SR142801 competition binding assay; conditions: hNK3 receptor binding, [3H]SR142801, membranes from HEK293 cells transiently expressing recombinant human NK3 receptor
T1 construct: expressed in transfected cells; host or cells: HEK293 cells (transient expression), membrane preparation
T1 sequence (P29371 1-465): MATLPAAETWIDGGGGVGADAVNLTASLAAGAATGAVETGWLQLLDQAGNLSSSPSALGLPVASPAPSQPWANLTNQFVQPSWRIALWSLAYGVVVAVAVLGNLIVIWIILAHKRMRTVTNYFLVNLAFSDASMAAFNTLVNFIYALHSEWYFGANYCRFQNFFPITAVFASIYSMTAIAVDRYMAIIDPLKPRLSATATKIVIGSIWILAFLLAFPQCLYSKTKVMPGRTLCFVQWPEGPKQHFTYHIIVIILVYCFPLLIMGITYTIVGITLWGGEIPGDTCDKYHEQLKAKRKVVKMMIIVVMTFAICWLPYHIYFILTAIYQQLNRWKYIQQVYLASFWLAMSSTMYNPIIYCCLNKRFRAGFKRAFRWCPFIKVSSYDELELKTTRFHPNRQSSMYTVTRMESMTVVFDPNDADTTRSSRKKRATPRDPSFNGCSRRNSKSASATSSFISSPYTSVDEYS
How it was run: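 Membranes from HEK293 cells transiently expressing human NK3 were incubated 75 min at RT with [3H]SR142801 at its KD and inhibitor (0.0003-10 μM) in Tris-HCl pH 7.4/MnCl2/phosphoramidon/BSA. Nonspecific binding used 10 μM SB222200. Ki from Hill-fitted IC50 via Cheng-Prusoff, duplicate determinations.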

Compound | Ki (human NK3 receptor) [nM] | activity on positive symptoms of schizophrenia ([1]; altered behaviour, delusion, hallucinations, extreme emotions, excited motor activity, incoherent speech) | activity in the treatment of negative symptoms of schizophrenia ([1]; depression, anhedonia, social isolation, memory and attention deficits)
CC(=O)N(C)C1(c2ccccc2)CCN(CCC[C@]2(c3ccc(Cl)c(Cl)c3)CCCN(C(=O)c3ccccc3)C2)CC1 [SR 142,801, Osanetant] |  | active | inactive
CN(Cc1ccc(-c2ccccc2)cc1)[C@H]1CN(C(=O)N2CCN(S(C)(=O)=O)CC2)C[C@@H]1c1ccc(Cl)cc1 (racemic) [Example 27, [(3RS,4SR)-3-(Biphenyl-4-ylmethyl-methyl-amino)-4-(4-chloro-phenyl)-pyrrolidin-1-yl]-(4-methanesulfonyl-piperazin-1-yl)-methanone] | 78 |  | 
CN(Cc1ccc(Cl)cc1)[C@H]1CN(C(=O)N2CCN(S(C)(=O)=O)CC2)C[C@@H]1c1ccc(Cl)cc1 (racemic) [Example 23, [(3RS,4SR)-3-[(4-Chloro-benzyl)-methyl-amino]-4-(4-chloro-phenyl)-pyrrolidin-1-yl]-(4-methanesulfonyl-piperazin-1-yl)-methanone] | 91 |  | 
CC1CN(CC(=O)N2C[C@H](c3ccc(Cl)c(Cl)c3)[C@@H](N(C)Cc3ccc(C(F)(F)F)c(F)c3)C2)CC(C)O1 (mixture of isomers) [Example 142, 1-{(3SR,4RS)-3-(3,4-Dichloro-phenyl)-4-[(3-fluoro-4-trifluoromethyl-benzyl)-methyl-amino]-pyrrolidin-1-yl}-2-(2,6-dimethyl-morpholin-4-yl)-ethanone] | 19.7 |  | 
CN1CCN(CC(=O)N2C[C@H](c3ccc(Cl)c(Cl)c3)[C@@H](N(C)Cc3ccc(C(F)(F)F)c(F)c3)C2)CC1 (racemic) [Example 114, 1-{(3SR,4RS)-3-(3,4-Dichloro-phenyl)-4-[(3-fluoro-4-trifluoromethyl-benzyl)-methyl-amino]-pyrrolidin-1-yl}-2-(4-methyl-piperazin-1-yl)-ethanone] | 40.2 |  | 
CN(Cc1ccc(C(F)(F)F)c(F)c1)[C@H]1CN(C(=O)N2CCN(S(=O)(=O)N(C)C)CC2)C[C@@H]1c1ccc(Cl)c(Cl)c1 (racemic) [Example 76, 4-{(3SR,4RS)-3-(3,4-Dichloro-phenyl)-4-[(3-fluoro-4-trifluoromethyl-benzyl)-methyl-amino]-pyrrolidine-1-carbonyl}-piperazine-1-sulfonic acid dimethylamide] | 1.8 |  | 
CN(Cc1ccc2c(c1)OCC2)[C@H]1CN(C(=O)N2CCN(S(C)(=O)=O)CC2)C[C@@H]1c1ccc(Cl)c(Cl)c1 (racemic) [Example 37, {(3SR,4RS)-3-(3,4-Dichloro-phenyl)-4-[(2,3-dihydro-benzofuran-6-ylmethyl)-methyl-amino]-pyrrolidin-1-yl}-(4-methanesulfonyl-piperazin-1-yl)-methanone] | 76.2 |  | 
CN(Cc1ccc(Cl)c(Cl)c1)[C@H]1CN(C(=O)N2CCN(S(C)(=O)=O)CC2)C[C@@H]1c1ccc(Cl)c(Cl)c1 (racemic) [Example 32] | 33.3 |  | 
COc1ccc(N2CCN(C(=O)N3C[C@H](c4ccc(Cl)c(Cl)c4)[C@@H](N(C)Cc4ccc(C(F)(F)F)c(F)c4)C3)CC2)cc1 (racemic) [Example 64, {(3SR,4RS)-3-(3,4-Dichloro-phenyl)-4-[(3-fluoro-4-trifluoromethyl-benzyl)-methyl-amino]-pyrrolidin-1-yl}-[4-(4-methoxy-phenyl)-piperazin-1-yl]-methanone] | 2.8 |  | 
CN(CCC#N)CC(=O)N1C[C@H](c2ccc(Cl)c(Cl)c2)[C@@H](N(C)Cc2ccc(C(F)(F)F)c(F)c2)C1 (racemic) [Example 128, 3-[(2-{(3SR,4RS)-3-(3,4-Dichloro-phenyl)-4-[(3-fluoro-4-trifluoromethyl-benzyl)-methyl-amino]-pyrrolidin-1-yl}-2-oxo-ethyl)-methyl-amino]-propionitrile] | 72 |  | 

More lines, in order of falling Ki (human NK3 receptor), values ahead:

Ki (human NK3 receptor) [nM] | Compound | activity on positive symptoms of schizophrenia ([1]; altered behaviour, delusion, hallucinations, extreme emotions, excited motor activity, incoherent speech) | activity in the treatment of negative symptoms of schizophrenia ([1]; depression, anhedonia, social isolation, memory and attention deficits)
69.9 | CN(Cc1ccc(Cl)c(F)c1)[C@H]1CN(C(=O)N2CCN(S(C)(=O)=O)CC2)C[C@@H]1c1ccc(Cl)cc1 (racemic) [Example 29, [(3RS,4SR)-3-[(4-Chloro-3-fluoro-benzyl)-methyl-amino]-4-(4-chloro-phenyl)-pyrrolidin-1-yl]-(4-methanesulfonyl-piperazin-1-yl)-methanone] |  | 
43.2 | CC(=O)N[C@@H]1CCN(CC(=O)N2C[C@H](c3ccc(Cl)c(Cl)c3)[C@@H](N(C)Cc3ccc(C(F)(F)F)c(F)c3)C2)C1 (mixture of isomers) [Example 134, N-[(R)-1-(2-{(3SR,4RS)-3-(3,4-Dichloro-phenyl)-4-[(3-fluoro-4-trifluoromethyl-benzyl)-methyl-amino]-pyrrolidin-1-yl}-2-oxo-ethyl)-pyrrolidin-3-yl]-acetamide] |  | 
18.9 | CN(C)C1CCN(CC(=O)N2C[C@H](c3ccc(Cl)c(Cl)c3)[C@@H](N(C)Cc3ccc(C(F)(F)F)c(F)c3)C2)CC1 (racemic) [Example 136, 1-{(3SR,4RS)-3-(3,4-Dichloro-phenyl)-4-[(3-fluoro-4-trifluoromethyl-benzyl)-methyl-amino]-pyrrolidin-1-yl}-2-(4-dimethylamino-piperidin-1-yl)-ethanone] |  | 
14.9 | CN(Cc1ccc(C(F)(F)F)c(F)c1)[C@H]1CN(C(=O)CN2CCC(N3CCCCC3=O)CC2)C[C@@H]1c1ccc(Cl)c(Cl)c1 (racemic) [Example 146, 1′-(2-{(3SR,4RS)-3-(3,4-Dichloro-phenyl)-4-[(3-fluoro-4-trifluoromethyl-benzyl)-methyl-amino]-pyrrolidin-1-yl}-2-oxo-ethyl)-[1,4′]bipiperidinyl-2-one] |  | 
